Test results from PMC2836797 (FEBS letters, 2010).

Columns and labels:
Format in all cases: biochemical
[1] = target: ND1 subunit of NADH:ubiquinone oxidoreductase (complex I) (Bos taurus, UniProt P03887); assay: photoaffinity labeling of SMP with [3H]BPA, BN-PAGE/dSDS-PAGE radioactivity
[2] = target: ND5 subunit of NADH:ubiquinone oxidoreductase (complex I) (Bos taurus, UniProt P03920); details: read-out: -6M urea
[3] = target: ND2 subunit of NADH:ubiquinone oxidoreductase (complex I) (Bos taurus, UniProt P03892)
ND2 subunit of NADH:ubiquinone oxidoreductase (complex I), sequence (P03892 whole entry, one chain of several): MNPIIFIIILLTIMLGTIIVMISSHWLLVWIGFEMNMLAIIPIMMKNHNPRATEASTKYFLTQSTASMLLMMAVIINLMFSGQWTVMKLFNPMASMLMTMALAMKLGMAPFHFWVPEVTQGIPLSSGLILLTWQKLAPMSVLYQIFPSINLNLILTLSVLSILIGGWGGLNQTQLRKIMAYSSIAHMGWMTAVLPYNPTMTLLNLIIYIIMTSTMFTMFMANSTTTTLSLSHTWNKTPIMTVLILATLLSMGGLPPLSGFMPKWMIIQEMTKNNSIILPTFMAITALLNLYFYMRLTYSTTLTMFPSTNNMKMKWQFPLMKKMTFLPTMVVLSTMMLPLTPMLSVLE

Measured: IC50

ND1 subunit of NADH:ubiquinone oxidoreductase (complex I), sequence (P03887 whole entry, one chain of several): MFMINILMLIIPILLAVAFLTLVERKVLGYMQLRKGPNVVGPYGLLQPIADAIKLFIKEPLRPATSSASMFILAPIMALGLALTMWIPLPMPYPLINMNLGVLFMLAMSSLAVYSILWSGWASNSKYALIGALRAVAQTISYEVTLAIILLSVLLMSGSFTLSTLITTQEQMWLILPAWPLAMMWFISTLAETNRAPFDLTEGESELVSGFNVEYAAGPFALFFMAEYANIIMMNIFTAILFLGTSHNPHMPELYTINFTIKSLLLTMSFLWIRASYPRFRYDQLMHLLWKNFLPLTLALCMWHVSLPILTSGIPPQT
ND5 subunit of NADH:ubiquinone oxidoreductase (complex I), sequence (P03920 whole entry, one chain of several): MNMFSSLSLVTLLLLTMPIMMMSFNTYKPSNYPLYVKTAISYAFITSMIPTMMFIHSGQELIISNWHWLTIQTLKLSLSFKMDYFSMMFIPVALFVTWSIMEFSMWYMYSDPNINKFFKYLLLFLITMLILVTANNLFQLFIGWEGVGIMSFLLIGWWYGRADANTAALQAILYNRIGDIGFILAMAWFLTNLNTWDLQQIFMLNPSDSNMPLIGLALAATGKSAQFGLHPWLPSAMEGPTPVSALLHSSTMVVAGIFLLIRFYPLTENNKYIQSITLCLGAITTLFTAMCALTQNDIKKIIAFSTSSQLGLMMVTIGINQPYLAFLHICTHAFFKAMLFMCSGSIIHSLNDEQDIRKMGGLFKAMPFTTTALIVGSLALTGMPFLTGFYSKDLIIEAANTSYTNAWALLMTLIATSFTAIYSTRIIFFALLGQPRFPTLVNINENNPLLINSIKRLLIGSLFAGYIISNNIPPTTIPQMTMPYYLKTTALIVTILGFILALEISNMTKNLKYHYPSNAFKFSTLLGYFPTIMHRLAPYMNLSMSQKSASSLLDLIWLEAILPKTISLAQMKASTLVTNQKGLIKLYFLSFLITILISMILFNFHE

benzophenone-asimicin [BPA]
~1 nM: all assays above
